Results: patent US20100267638A1, “EXOSITE-DIRECTED THROMBIN INHIBITORS” (CLEVELAND STATE UNIVERSITY, priority 2003, published 2010)
“And” between values parts separate entries of the source, which are not always exact repeats. Identical values can stand only once. “Also recorded” adds a separate entry of the source. Each block holds one substance with its values, some of them ahead of it. No end group written: not given here. *: point of attachment. SO3 = O=S(=O)(O)*

Tests used:
factor Xa = factor Xa (Homo sapiens, UniProt P00742); test: Cofactor effect of factor Va heavy chain peptides on factor Xa alone; assay type: biochemical; conditions: peptide incubated with factor Xa alone
prothrombinase = target: T1, prothrombinase (Homo sapiens, UniProt P00734); test: Assay measuring thrombin formation (prothrombinase inhibition by peptides, DAPA fluorescence); assay type: biochemical; conditions: for inhibition of prothrombinase activity with increasing peptide: FIG. 10A, up to 8000 nM; for effect on prothrombinase / factor Va cofactor activity at fixed concentration: peptide 100 μM
T1 construct: purchased Haematologic Technologies Inc. (Essex Junction, Vt.)
Protocol: Assay measuring thrombin formation. The formation of thrombin was analyzed using the fluorescent thrombin inhibitor DAPA as described using a Perkin Elmer LS-50B Luminescence Spectrometer (Perkin-Elmer LLC, Norwalk Conn.) with λex=280 nm, λem=550 nm and a 500 nm long pass filter in the emission beam (Schott KV-500). […] In all cases peptides were preincubated with factor tor Va prior to the assay as described in the legend to the figures. The final concentration of factor tor Va in the mixture was 4 nM with factor Xa at 10 nM, prothrombin at 350 nM, DAPA at 700 nM, in the presence of PCPS vesicles (10 μM). The initial rate of thrombin formation (nM IIa·min^−1) was calculated as described during the initial 5-10 sec of the reaction. To verify if the peptides have any effect on the active-site of thrombin, control experiments were performed as follows: a given peptide (at 100 μM) was incubated in the assay buffer containing DAPA (700 nM); the base line was monitored for 30 sec; thrombin (350 nM) was then added to the mixture and the fluorescent intensity resulting from the complexation of DAPA with the active site of thrombin was monitored for 60 sec. The slope of the reaction measuring thrombin formation in the presence of a given peptide during the first 5 sec was calculated and compared to the slope of a reaction obtained in the absence of peptide. It is noteworthy that under the conditions employed the thrombin-DAPA interaction occurred fast and the calculated slope of the reaction was sensitive to all parameters used. […] All experiments were performed in triplicates or as indicated. The concentration of each peptide given in the figures and figure legends is their final concentration in the assay. […] In some cases the data were also analyzed and plotted using DeltaGraph (DeltaPoint, Monterey, Calif.).
Specifically, peptides were incubated with factor tor Va as described herein at a fixed concentration (100 μM). The percent of factor tor Va cofactor activity was calculated by comparing the activity of prothrombinase in the presence of a given peptide to the activity of prothrombinase determined in a control reaction in the absence of peptide and in the presence of factor Xa. […] The control peptide represents a pentadecapeptide from the middle portion of factor tor Va heavy chain (P15H) (SEQ ID NO. 22). […] All other peptides from region 680-709 had no significant effect on prothrombinase activity.
HC3 represents amino acid sequence 690-699 of factor tor Va heavy chain; HC4 contains the sequence 695-704 of human factor tor Va heavy chain; P15H represents amino acid sequence 337-351 from the middle portion of human factor tor Va heavy chain. […] The concentration of each peptide given on the x axis represents its final concentration in the prothrombinase mixture. […] Thus, both peptides show similar inhibitory potential.

[1] = Clotting time as a function of peptide concentration (FIG. 12); conditions: peptide 500 nM
Text: FIG. 12 is a graph illustrating clotting time as a function of concentration of various peptides of interest as follows: DYDYQ (SEQ ID NO. 11) (filled squares); DYDYQ (1, 2) (or as designated in shorthand form, D5Q1,2) (SEQ ID NO. 9) (filled triangles); DYDYQ-1 (SEQ ID NO. 7) (filled inverted triangles); and DYDYQ-2 (SEQ ID NO. 8) (filled diamonds).

[2] = target: T2, [OG488]-EGR-hXa-human factor tor Va (Homo sapiens, UniProt P00742); test: Fluorescence anisotropy of preformed membrane-bound [OG488]-EGR-hXa-factor Va complex; assay type: binding; conditions: up to 300 μM peptide
T2 construct: purchased Haematologic Technologies Inc. (Essex Junction, Vt.)
Protocol: Fluorescence Anisotropy measurements. Fluorescence anisotropy of [OG488]-EGR-hXa was measured using a Perkin Elmer LS-50B Luminescence Spectrometer in L-format as recently described. Anisotropy measurements were performed in a quartz cuvette under constant stirring (low) with λex=490 nm, λem=520 nm with a long pass filter (Schott KV-520) in the emission beam. […] The concentration of peptide given in each graph is the final concentration of the peptide in the assay mixture. […] In some cases the data were also plotted using DeltaGraph (DeltaPoint, Monterey, Calif.).
HC3 and HC4 were also tested for their ability to interfere with the fluorescence anisotropy of a preformed complex composed of membrane-bound [OG488]-EGR-hXa-human factor tor Va as described. […] The peptides must thus impair another function of the cofactor within prothrombinase.

[3] = target: T3, active-site-immobilized thrombin (Homo sapiens, UniProt P00734); test: Direct binding of the peptides to thrombin-agarose (chromatography); conditions: 400 μg peptide, 2.5 ml column, elution 2M NaCl
T3 construct: Factor Xa cleaves prothrombin to form thrombin; purchased Haematologic Technologies Inc. (Essex Junction, Vt.)
Protocol: Direct binding of the peptides to thrombin. Thrombin was immobilized onto agarose through the active site as described. Peptide solutions of HC1-HC5 (SEQ ID NO. 2-6, respectively), D13R (SEQ ID NO. 21), DYDYQ (SEQ ID NO. 11), and P15H (SEQ ID NO. 22) were dissolved in water to a given concentration and then diluted in 20 mM Hepes, 0.1 M NaCl, pH 7.4 in a manner that 400 μg was contained in each starting solution. In control experiments it was determined that the maximum amount of peptide that could be retained by the thrombin-agarose column was 400 μg. Since some of the peptides contain aromatic amino acid residues, their concentration was also measured by optical density.
Mass spectrometry instruments and conditions. The identity of all peptides found in the flow-through or the elution of the thrombin-agarose column was verified by mass spectrometry. Since the peptides were in a buffer solution, we used Liquid Chromatography/Mass Spectrometry (LC/MS) for their identification. In this procedure peptides are first separated from the salt content of the buffer using an HPLC system (HP 1100, HPLC gradient system, Agilent Technologies, Palo Alto Calif.) with a C18 column (1 mm×15 cm, GraceVydac, Hesperia Calif.) with buffers A (0.3% acetic acid in water) and B (0.3% acetic acid in acetonitrile). The elution of the column was monitored with a Micromass Quatro II ESI-Triple Quadrupole Mass Spectrometer (Waters, Milford Mass.). The data were collected using a Compaq Professional Workstation AP200 (Hewlett-Packard, Palo Alto Calif.) and analyzed by the software MassLynx v3.3 (Waters, Milford Mass.).
Direct interaction of hirudin-like peptides from factor tor Va heavy chain With thrombin-agarose. To ascertain that the peptides of interest are inhibitory of prothrombinase activity and contain a binding site for thrombin, the interaction of all peptides with active-site-immobilized thrombin was studied in chromatographic experiments and is shown in FIG. 5. In FIG. 5, small scale chromatography of hirudin-like peptides was performed on a 2.5 ml thrombin-agarose. Each run represents 400 μg of peptide. This amount of peptide was determined to saturate the specific sites of thrombin of the column used (2.5 ml). Elution was performed with 2M NaCl and was started at the point indicated by the arrow (fraction #30). The presence of the peptides in the corresponding fractions was monitored by absorbance at 280 nm (shown on the y axis) and by LC/MS (inset). […] Specifically, these peptides were treated similarly to all other peptides and similar fractions were collected. Aliquots from fractions #7 and #35 from each separate experiment were submitted to LC/MS analysis as described herein (depicted by the hatched arrows at the bottom of the chromatogram). The results from tube #7 from three chromatograms are depicted. The data are presented as % intensity of the signal as a function of the mass of the peptide divided by the charge (m/z). FIG. 5A, HC1 (Mr calculated 1268); FIG. 5B, HC2 (Mr calculated 1132); FIG. 5C, HC5 (Mr calculated 1053). The spectrum of HC1 has two major peaks: at 635.5 and at 424, and one minor peak at 1270 (1268+1). The peak at 635.5 represents the peptide (mass/charge) with two positive charges ([…]) i.e. [(1268+2=1270)]/2=635 whereas, the peak at 424 represents HC1 with three positive charges ([…]) i.e. [(1268+3=1271)]/3=424. […] HC5 spectrum has two major peaks: one at 528 and one at 352. The peak at 528 represents the peptide with two positive charges ([…]) i.e. [(1053+2=1055)]/2=527.5 while, the other peak represents HC5 with three positive charges ([M+31-]^2+) i.e. [(1053+3=1056)]/3=352. The minor peak at 1054 represents the peptide with one charge. It is noteworthy, that in gas phase the number of protons attached to each peptide depends on the number (quantity) of basic residues contained in each peptide. […] Thus, HC1 and HC5 are more likely to bind two or three protons than HC2. […]

[4] = tested on: factor V deficient plasma; test: Clotting activity of recombinant factor V molecules; conditions: for Activity / Specific activity / clotting time: factor V species at 2.5 nM
Protocol: Determination of factor V/tor Va clotting activity of the recombinant molecules. Cofactor activity of wild type and mutant molecules was measured in a clotting assay using factor V deficient plasma prior and after activation by thrombin (15 min, 37° C.) and RVV-V activator (2 hr, 37° C.) as described. The values were standardized to the percentage of control. A linear semi-log graph was constructed using known concentrations of purified factor V (U/ml as a function of clotting time). The assay endpoint was determined by visualization of the fibrin clot. The activity of the factor VNa solution (U/ml) was determined by extrapolation from the graph. The concentration of the recombinant molecules was determined by a recently described ELISA. Finally, the numbers were combined to obtain the specific activity of the recombinant factor V solutions (U/mg).

Chain of factor Xa (P00742 235-488 limits assumed): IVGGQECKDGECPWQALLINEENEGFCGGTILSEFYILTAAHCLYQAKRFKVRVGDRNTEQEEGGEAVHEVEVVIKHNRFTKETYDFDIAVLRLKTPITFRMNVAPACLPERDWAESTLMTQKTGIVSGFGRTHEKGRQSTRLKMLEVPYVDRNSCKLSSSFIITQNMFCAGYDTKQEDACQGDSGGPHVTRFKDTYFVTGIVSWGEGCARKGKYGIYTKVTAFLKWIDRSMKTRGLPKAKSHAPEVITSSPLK
Chain of factor Xa (P00742 41-179 limits assumed): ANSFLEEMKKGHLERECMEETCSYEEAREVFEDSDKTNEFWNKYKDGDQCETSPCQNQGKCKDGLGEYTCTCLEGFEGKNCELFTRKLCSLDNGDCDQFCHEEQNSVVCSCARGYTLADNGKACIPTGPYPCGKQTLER
T2 sequence (P00742 41-179 limits assumed): as above
T2 sequence (P00742 235-488 limits assumed): as the sequence (P00742 235-488 limits assumed) above

cofactor effect on factor Xa (factor Xa): generated a cofactor effect
Substance: AP4′: nine amino acid peptide, residues 323-331, from N42R (EYFIAAEEV; listed as Homo sapiens)

inhibition of prothrombinase activity with increasing peptide (prothrombinase): significant inhibitory effects
Substance: DY(—SO3)DYQ (DY(SO3)DYQ) [DYDYQ-1, DYDYQ with first Y sulfonated]
clotting time [1]: relatively long clotting times

inhibition of prothrombinase activity with increasing peptide (prothrombinase): significant inhibitory effects
Substance: DYDY(—SO3)Q (DYDY(SO3)Q) [DYDYQ-2, DYDYQ with second Y sulfonated]
clotting time [1]: relatively long clotting times

Vmax of prothrombinase in presence of increasing peptide (prothrombinase; HC4 0.5-2 μM, increasing prothrombin): ~525±30 nM IIa/min | Ki (prothrombinase; calculated from IC50=Ki(1+S0/Km), Km 0.4 μM, S0 350 nM prothrombin, read-out: Ki of prothrombinase inhibition): 5.3 µM and ~5.3 µM | IC50 (prothrombinase; factor Va 4 nM, factor Xa 10 nM, prothrombin 350 nM, PCPS 10 μM, peptide preincubated with factor Va): 10 µM and ~10 µM
Substance: DYDYQNRLAA [HC4]
type of inhibition of prothrombinase with respect to prothrombin (prothrombinase; kinetic analyses, increasing prothrombin and peptide): competitive type of inhibition; also recorded: competitive inhibitors | effect on prothrombinase / factor Va cofactor activity at fixed concentration (prothrombinase): inhibited prothrombinase; also recorded: complete inhibition | interference with binding of factor Va to [OG488]-EGR-hXa (anisotropy) [2]: No significant decrease; also recorded: unable to interfere with the binding of factor tor Va | interaction with immobilized thrombin (thrombin-agarose) [3]: eluted from the column with high-salt buffer; also recorded: interact with immobilized thrombin

cofactor effect on factor Xa (factor Xa): generated a cofactor effect
Substance: E5A: five amino acid peptide, residues 323-327, from N42R (EYFIA; listed as Homo sapiens)

Substance: Factor V^2K2F: quadruple mutant, recombinant human factor V with mutations D695→K, Y696→F, D697→K, Y698→F
ability to promote clotting [4]: unable to promote clotting | Activity [4]: 0.0046 U/ml | Specific activity [4]: 5.6 U/mg | clotting time [4]: 66.7 ± 1.3 s

interaction with immobilized thrombin (thrombin-agarose) [3]: present in the flow-through
Substance: HC1: overlapping 10 amino acid peptide from region 680-709 of human factor Va heavy chain (KMHDRLEPED; listed as Homo sapiens)

interaction with immobilized thrombin (thrombin-agarose) [3]: present in the flow-through
Substance: HC2: overlapping 10 amino acid peptide from region 680-709 of human factor Va heavy chain (LEPEDEESDA; listed as Homo sapiens)

Substance: N42R: 42 amino acid peptide from the middle portion of factor Va heavy chain, residues 307-351 of factor V (NLKKITREQRRHMKRWEYFIAAEEVIWDYAPVIPANMDKKYR; listed as Homo sapiens)
cofactor effect on factor Xa (factor Xa): increasing the catalytic efficiency of the enzyme by several-fold

interaction with immobilized thrombin (thrombin-agarose) [3]: did not interact with thrombin
Substance: P15H: negative control pentadecapeptide, amino acid sequence 337-351 from the middle portion of human factor Va heavy chain (PVIPANMDKKYRSQH) [reference compound]
effect on prothrombinase / factor Va cofactor activity at fixed concentration (prothrombinase): no effect on cofactor activity; also recorded: no effect on prothrombinase function

Substance: Wild type FV: recombinant wild type human factor V expressed in COS-7L cells
specific clotting activity after activation by RVV-V activator ([4]; activated by RVV-V activator): 570 U/mg | specific clotting activity after activation by thrombin ([4]; activated by thrombin): 497 U/mg | Activity [4]: 0.12 U/ml | Specific activity [4]: 145 U/mg | clotting time [4]: 32.1 ± 1.2 s
